One compound from patent publication US10766855B2, “Hydroxamate triterpenoid derivatives” (VIVACELL BIOTECHNOLOGY ESPANA S.L., priority 2016, dated 2020) can be followed below.

The test system of one assay is HUVEC. In words: Endothelial cell tube formation (angiogenesis) in HUVEC co-cultured with fibroblasts. Format: cell-based, human. The note with it: 1 μM, 7 days. The method, then:
Measurements of endothelial cell tube formation as a model of angiogenesis in green fluorescent Human endothelial vascular cells (HUVEC) co-cultured with primary fibroblasts and stimulated separately with compound VII (1 μM), rhFGF (10 ng/ml) and VEGFA (10 ng/ml) for 7 days. Values represent the mean±SEM (n=3).
To test the functional consequences of compound VII stimulation in a physiological model, endothelial cell tube formation was measured as a model of angiogenesis. CellPlayer™ GFP AngioKit-96 (Essen BioScience Inc., Welwyn Garden City, UK) was supplied as growing co-cultures of human matrix (normal human dermal fibroblast, NHDF) and endothelial cells (HUVEC) at the earliest stages of tubule formation. CellPlayer 96-well kinetic angiogenesis assay was performed according to the manufacturer's protocol. Briefly, lentivirally infected green fluorescent protein (GFP)-HUVECs were cocultured with normal human dermal fibroblasts in a 96-well microplate. The plate was placed in IncuCyte, and images were automatically acquired in both phase and fluorescence every 6 hours for 7 days. […] Tube formation over the 7-day assay was quantified using the Essen BioScience Angiogenesis Analysis Module. […] Briefly, the fluorescent images were analyzed to generate a segmentation mask closely resembling the in vitro network. […]

The test system of another assay is 3NP-lesioned mice. Description: 3-NP induced Huntington's disease model in mice. It is filed as in vivo, mouse. The method, then: Striatal neurodegeneration was induced in 16-week-old C57BL/6 male mice (Harlan Ibérica, Barcelona, Spain) by six intraperitoneal (i.p.) injections of 3-nitropropionic acid (3NP) (30 mg/kg; one injection each every 12 h prepared in PBS). 3NP-treated animals and the non-lesioned control group (injected with PBS) were used for pharmacological studies with Betulinic acid (30 mg/Kg) and compound VII (30 mg/Kg). Treatments consisted of 5 i.p. injections every 24 h with […] the test compounds or vehicle (10% DMSO plus 6.2% Tween 20 in saline buffer), with the first injection 24 h prior the first 3NP injection and the rest of doses 30 min before the injections of 3NP. Mice were subjected to behavioral tests for determining their neurological status. General locomotor activity, the hindlimb clasping and dystonia, and the truncal dystonia were evaluated. All behavioral tests were conducted prior to drug injections to avoid acute effects of the compounds under investigation. […] were euthanized 12 h after the last injection of 3NP. Once euthanized, animals were dissected and their brains were rapidly removed. The right hemisphere was used to dissect the striatum, which was quickly frozen in RNAlater (Sigma-Aldrich, Germany) to analyzed inflammatory markers were by Real Time PCR. The left hemisphere was fixed in fresh 4% paraformaldehyde (in 0.1M phosphate buffered-saline) for 48 hours at 4° C. and embedded in paraffin wax for histological analysis.
For this test, intoxicated mice with 3-Nitropropionic acid (3-NP) were used for determining microglia activation and astrogliosis including a Control with non-intoxicated mice (3NP, 3NP+BA and 3NP+Compound VII). Iba-1 and glial fibrillary acidic protein (GFAP) expression were determined by immunostaining of brain sections through the different group of mice. Quantification of the different markers was performed with Image J software.
Total RNA was isolated from striata (3NP model) using RNeasy Lipid Tissue Mini Kit (Qiagen, GmbH). The total amount of RNA extracted was quantitated by spectrometry at 260 nm and its purity from the ratio between the absorbance values at 260 and 280 nm. Genomic DNA was removed to eliminate DNA contamination. Single-stranded complementary DNA was synthesized from up to 1 μg of total RNA (pool from at least 3 animals per group) using iScript™ cDNA Synthesis Kit (Bio-Rad, Hercules, Calif., USA). The reaction mixture was kept frozen at −20° C. until enzymatic amplification. The iQ™ SYBR Green Supermix (Bio-Rad) was used to quantify mRNA levels for COX-2, IL-6, IL-1β, and iNOS. […] Expression levels were calculated using the 2^−ΔΔCt method.

In the next assay the test system is HFD mice. Description: High fat diet (HFD) model of diabetes and metabolic pathologies in mice. Format: in vivo, mouse. To be noted: 30 mg/kg i.p. every 24 h. The method, then:
High-fat diet-fed mouse is a widely used model for impaired glucose tolerance (IGT) and type 2 diabetes. Eight-week-old male C57BL/6 mice (Charles River-France) were used for experiments. Mice were maintained under controlled conditions [12 h light/dark cycle; temperature 20° C. (±2° C.) and 40-50% relative humidity] with free access to tap water and standard rodent chow ad libitum. After 1 week of acclimatization, mice were divided into two groups and fed ad libitum with a standard diet—CD- (Code U8220G10R, SAFE Diets, Augy, France) or a High-Fat diet—HFD- (D12451; Research Diets, New Brunswick, N.J.) in order to induce obesity for 15 weeks (diet-induced obesity, DIO). In order to assess the potential beneficial metabolic effects of compound VII in this model of DIO, pharmacological administration of the compound (30 mg/kg body weight) was performed by intraperitoneal (i.p.) injection every 24 h from 12th to 15th week of diet exposure. Control animals received the corresponding vehicle injections (1:1:18 Ethanol:Cremophor:Saline).
To ensure the effectiveness of HFD feeding regimen and assess the efficacy of compounds in terms of amelioration of the metabolic phenotype, body composition analyses of fat and lean masses were performed by QMR (quantitative magnetic resonance) using the EchoMRI™ 700 analyzer (Houston, Tex., software v. 2.0). In this sense, MRI scans were taken in three time points during the experimental period: before starting diet exposure, after 12 week of feeding regimen (coinciding with start of treatment) and at the end of experimental procedures (on the 15th week of diet exposure). Additionally, five days before sacrifice, glucose tolerance test (GTT) was performed in overnight food-deprived mice. To this end, mice were injected intraperitoneally with 2 mg of glucose/g body weight and blood glucose was measured before and 30, 60 and 120 min after injection utilizing an Accu-Chek Advantage® (Roche) glucometer. At the end of the experiment, mice were sacrificed and blood samples were collected using EDTA-coated tubes and plasma stored at −80° C. Plasma triglycerides were measured using and enzymatic colorimetric kit (QCA, Barcelona, Spain).

As to `C=C(C)[C@@H]1CC[C@]2(C(=O)NO)CC[C@]3(C)[C@H](CC[C@@H]4[C@@]5(C)CC[C@H](O)C(C)(C)[C@@H]5CC[C@]43C)[C@@H]12` [Compound VII, (3β) 3-Hydroxy-N-hydroxy-lup-20(29)-en-28-amide], in the assay on HUVEC, the “network length in HUVEC cells” value is on record as “increased significantly the network length”. For the same compound, the “mRNA expression for COX-2, IL-1β, IL-6 and iNOS in striatum” value in the assay with 3NP-lesioned mice (30 mg/kg, compared with 3NP+Vehicle) was “down regulated”. Besides, in the assay on 3NP-lesioned mice (i.p., 30 mg/kg), the “clinical symptoms (behavioral score) induced by 3-NP intoxication” value is on record as “clearly alleviated the clinical symptoms” and the “reduction in Nissl-stained cells (neuronal death) in striatum caused by 3NP” value is given as “clearly prevented”. For the same compound, the “3NP-induced microgliosis (Iba1) and astrogliosis (GFAP)” value with 3NP-lesioned mice (i.p., immunohistochemistry) is “reduced 3NP-induced microgliosis and astrogliosis”. For the same compound, in the assay with HFD mice (3 weeks), the “glucose tolerance (GTT)” value was “improved glucose tolerance” and the “plasma levels of triglycerides” value was “normalize the plasma levels of triglycerides”. In the assay on HFD mice (12th to 15th week), the adiposity entry is listed as “alleviated”, the “increase in Fat Mass” value is “alleviated” and the weight gain entry is recorded as “alleviated weight gain”.
